Entries after “also recorded” stand apart in the source; their conditions may differ.
What was measured:
[1] = system: RyR1^Rec mice (model of central core disease); assay: Animal grip test (gripping time on inverted grid) in inducible RyR1 KO mice; format: in vivo
Method: For this study, an inducible and non-lethal model of KO mice for RyR1 developed in the laboratory was used. In these mice, exons 9 to 11 of the RYR1 gene are flanked by LoxP sites on both alleles (RYR1 fl/fl).
KO was induced by intraperitoneal injections of tamoxifen (Sigma) eight weeks after birth, at 1 mg/day for five days. It is important to note that all animals have received these injections, whether they have the HSA-Cre allele or not.
Exclusively in animals having the HSA-Cre allele, tamoxifen (TAM) causes the translocation of the Cre recombinase to the nucleus, thus allowing the recombination of the LoxP sites and the deletion of exons 9-11 from the RYR1 gene (FIG. 1). In order to improve the understanding, the mice in which the recombination cannot be made will be referred to as the RyR1^Ctrl mice in the following document. The recombinant mice after intraperitoneal administration of TAM will be referred to as RyR1^Rec mice.
For the treatment of animals, fulvestrant was prepared from a commercial solution of Faslodex 250 mg (AstraZeneca). This solution was diluted in physiological serum and 0.27 mg of fulvestrant was injected to each mouse (weight of 20 g) in 50 μl volume. The injections were carried out intramuscularly in the quadriceps once per week.
In order to evaluate the muscular strength of the animals, the mice were placed on a grid which was then turned upside down. The duration during which the mice remain gripped at the grid has been timed to a limit of 300 seconds. This measurement was carried out in a weekly manner over the entire population of mice of the study.
The strength of the animals is followed by a grip test (gripping test) once a week, just before the injections.

[2] = system: immortalized human MELA cells; assay: Calcium imaging (Fluo-4, KCl 140 mM stimulation) on cells of a central core disease patient; format: cell-based; details: 7 days in differentiation medium, not statistically significant
Excerpt: The MELA cells are immortalized human cells derived from a biopsy of a patient suffering from central core disease, including in particular a quantitative defect of RyR1 and a calcium release defect (Rendu et al., 2013). These cells were immortalised by the team of Vincent Mouly (Institute of Myology, Paris).
(§1) The medium has been renewed 4 days after placing in the differentiation medium.
(§2) For human cells, the shape of the cells not allowing them to be distinguished individually in an accurate manner, the measurements were made on a single region of interest per well corresponding to the total surface covered by the myotubes. 4 to 6 wells were measured for each repetition of the experiment.
(§3) Fulvestrant was tested on human muscle cells having or not a calcium release defect (human cells CTRL or MELA), by incubation of 7 days in differentiation medium.

[3] = system: recombinant RyR1 cells (RyR1-Rec murine myotubes); details: 72 h, 0.1 µM
Method: The satellite cells were isolated from the skeletal muscles of the lower limbs of the neonate mice RyR1^Ctrl according to the procedure described in Marty et al, 2000.
The cells were seeded in 96 well plates (75,000 cells/well) previously coated with laminin. The cells were first cultured in the proliferation medium composed of Ham's F-10 Nutrient Mix (Life Technologies), 20% fetal calf serum (Life Technologies), 2% Ultroser G (PALL) and 2% Penicillin-Streptomycin (Life Technologies).
In order to induce floxed RyR1 gene recombination, the cells thus have been transduced 12 hours after seeding with adenoviruses allowing the expression of Cre recombinase, AdV-Cre (Utah University), to a multiplicity of infections (multiplicity of infection, or MOI) of 64. […]
The films were analyzed by the Fiji (Schindelin et al., 2012) and Prim (GraphPad) softwares.
For murine cells, the fluorescence measurements were performed on regions of interest each corresponding to a myotube, with several tens of myotubes measured for each repetition of the experiment.
The intensity of the calcium release was evaluated in response to a stimulation by KCl 140 mM (mimicking a depolarization at ˜0 mV). […]

human control cells CTRL = assay: Calcium imaging (Fluo-4, KCl 140 mM stimulation) on human control muscle cells; format: cell-based; details: 7 days in differentiation medium
Method: The CTRL cells are immortalized human cells from a biopsy of a healthy subject having no calcium release abnormality.
as §1, §2, §3

## C[C@]12CC[C@@H]3c4ccc(O)cc4C[C@@H](CCCCCCCCC[S+]([O-])CCCC(F)(F)C(F)(F)F)[C@H]3[C@@H]1CC[C@@H]2O (some centres unmarked) [fulvestrant]
[1]; female RyR1^Rec mice, intramuscular injection once a week, grip test weekly (limit 300 seconds)
  strength (gripping time) vs untreated mice: very sharp improvement; also recorded: significantly improved
[1]; mice with induced central core disease, 75 days of treatment
  strength over the entire duration of the treatment: did not lose strength
[2]; fulvestrant 100 nM
  effect on calcium release: tends to increase calcium release; also recorded: tendency to improve the calcium release
[2]; fulvestrant 250 nM
  effect on calcium release: tends to increase the release of calcium
[3]
  increase of the calcium release peak vs untreated cells: 28%
  magnitude of the calcium release peak (Fluo-4 fluorescence): 0.40+/−0.04
Human control cells CTRL; fulvestrant 100 nM
  effect on calcium release: has no effect; also recorded: does not have an effect
Human control cells CTRL; fulvestrant 250 nM
  effect on calcium release: has no effect; also recorded: does not have any effect

— patent publication US20220175795A1, “USE OF FULVESTRANT FOR THE THERAPEUTIC CARE OF CENTRAL CORE DISEASE” (UNIVERSITÉ GRENOBLE ALPES, priority 2019, published 2022)
